pIC50: −log10 of the molar value.
Experiments:
[1] = target: JAK1 (recombinant purified GST-tagged catalytic domain) (Homo sapiens (Human), UniProt P23458); assay: Jak Biochemical HTRF Assay (JAK1); conditions: [ATP] 31.8 μM
Outline: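 Under a 120 min room-temperature, ATP-initiated reaction, peptide phosphorylation was detected by Eu-pY20/streptavidin-Dylight 650 HTRF after EDTA stop. IC50 values derive from percent inhibition curves.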

[2] = target: JAK2 (recombinant purified GST-tagged catalytic domain) (Homo sapiens (Human), UniProt O60674); assay: Jak Biochemical HTRF Assay (JAK2); conditions: [ATP] 8.5 μM
JAK2 (recombinant purified GST-tagged catalytic domain), sequence (O60674 849-1124): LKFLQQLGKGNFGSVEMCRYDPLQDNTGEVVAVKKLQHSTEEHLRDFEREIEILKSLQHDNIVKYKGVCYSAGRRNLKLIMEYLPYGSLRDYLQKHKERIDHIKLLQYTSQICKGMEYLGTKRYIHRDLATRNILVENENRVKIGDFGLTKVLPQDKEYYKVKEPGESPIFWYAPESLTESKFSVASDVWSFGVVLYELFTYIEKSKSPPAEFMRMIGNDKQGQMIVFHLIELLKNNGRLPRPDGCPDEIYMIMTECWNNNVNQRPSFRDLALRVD

JAK1 (recombinant purified GST-tagged catalytic domain), sequence (P23458 875-1153): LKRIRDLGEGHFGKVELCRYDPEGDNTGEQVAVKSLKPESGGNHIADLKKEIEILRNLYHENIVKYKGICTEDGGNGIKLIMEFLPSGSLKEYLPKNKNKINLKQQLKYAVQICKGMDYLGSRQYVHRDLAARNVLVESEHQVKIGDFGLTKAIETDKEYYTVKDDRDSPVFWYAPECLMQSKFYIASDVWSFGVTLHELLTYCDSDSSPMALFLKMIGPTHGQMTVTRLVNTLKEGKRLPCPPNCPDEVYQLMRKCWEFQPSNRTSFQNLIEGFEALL

| SMILES | pIC50 [1] | pIC50 [2] |
| --- | --- | --- |
| CC(C)NS(=O)(=O)c1ccc(Nc2nn(C3(CC#N)CCN(C(=O)OC(C)(C)C)CC3)c3cc[nH]c(=O)c23)cc1F [Example 5-295, tert-butyl 4-(cyanomethyl)-4-(3-((3-fluoro-4-(N-isopropylsulfamoyl)phenyl)amino)-4-oxo-4,5-dihydro-1H-pyrazolo[4,3-c]pyridin-1-yl)piperidine-1-carboxylate] | 9.38 | 9.22 |
| CC(C)OC(=O)N1CCC(CC#N)(n2nc(Nc3ccnc(F)c3)c3c(=O)[nH]ccc32)CC1 [Example 13-1, isopropyl-4-(cyanomethyl)-4-(3-(2-fluoropyridin-4-ylamino)-4-oxo-4,5-dihydropyrazolo[4,3-c]pyridin-1-yl)piperidine-1-carboxylate] | 9.66 | 8.42 |
| CC(C)(C)S(=O)(=O)c1ccc(Nc2nn(C3(CC#N)CCCC3)c3cc[nH]c(=O)c23)cc1 [Example 5-122, 2-(1-(3-((4-(tert-butylsulfonyl)phenyl)amino)-4-oxo-4,5-dihydro-1H-pyrazolo[4,3-c]pyridin-1-yl)cyclopentyl)acetonitrile] | 9.66 | 9.32 |
| N#CC[C@]1(n2nc(Nc3ccc(S(=O)(=O)C(F)F)cc3)c3c(=O)[nH]ccc32)CC[C@@H](N2CC(F)C2)CC1 [Example 18-27, Cis 2-(1-(3-((4-((difluoromethyl)sulfonyl)phenyl)amino)-4-oxo-4,5-dihydro-1H-pyrazolo[4,3-c]pyridin-1-yl)-4-(3-fluoroazetidin-1-yl)cyclohexyl)acetonitrile] | 8.65 | 8.04 |
| N#CC[C@@]1(n2nc(Nc3ccccc3)c3c(=O)[nH]ccc32)CCCOC1 [Example 5-27, (S)-2-(3-(4-oxo-3-(phenylamino)-4,5-dihydro-1H-pyrazolo[4,3-c]pyridin-1-yl)tetrahydro-2H-pyran-3-yl)acetonitrile] | 9.66 | 8.55 |
| CN(C)S(=O)(=O)c1ccc(Nc2nn(C3(CC#N)CCN(Cc4ccccc4)CC3)c3cc[nH]c(=O)c23)cc1 [Example 8-1, 4-({1-[1-benzyl-4-(cyanomethyl)piperidin-4-yl]-4-oxo-4,5-dihydro-1H-pyrazolo[4,3-c]pyridin-3-yl}amino)-N,N-dimethylbenzenesulfonamide] | 9.77 | 9.42 |
| COC1CN([C@H]2CC[C@@](CC#N)(n3nc(Nc4ccc(Cl)cc4)c4c(=O)[nH]ccc43)CC2)C1 [Example 18-9, Cis 2-(1-(3-((4-chlorophenyl)amino)-4-oxo-4,5-dihydro-1H-pyrazolo[4,3-c]pyridin-1-yl)-4-(3-methoxyazetidin-1-yl)cyclohexyl)acetonitrile] | 8.94 | 6.99 |
| CC(C)(C)OC(=O)N1CCC(CC#N)(n2nc(NCC3CC3)c3c(=O)[nH]ccc32)CC1 [Example 2-2, tert-butyl 4-(cyanomethyl)-4-{3-[(cyclopropylmethyl)amino]-4-oxo-4,5-dihydro-1H-pyrazolo[4,3-c]pyridin-1-yl}piperidine-1-carboxylate] | 7.30 | 7.40 |
| Cc1cc(Nc2nn([C@@]3(CC#N)CCN(C(=O)OC(C)(C)C)C[C@H]3F)c3cc[nH]c(=O)c23)ccc1C(=O)N1CCSCC1 [Example 5-279, (3R,4R)-tert-butyl 4-(cyanomethyl)-3-fluoro-4-(3-((3-methyl-4-(thiomorpholine-4-carbonyl)phenyl)amino)-4-oxo-4,5-dihydro-1H-pyrazolo[4,3-c]pyridin-1-yl)piperidine-1-carboxylate] | 9.74 | 9.92 |
| CN(C)S(=O)(=O)c1ccc(Nc2nn(C3(CC#N)CCN(C(=O)O[C@H]4CCOC4)CC3)c3cc[nH]c(=O)c23)cc1 [Example 11-11, (S)-tetrahydrofuran-3-yl 4-(cyanomethyl)-4-(3-((4-(N,N-dimethylsulfamoyl)phenyl)amino)-4-oxo-4,5-dihydro-1H-pyrazolo[4,3-c]pyridin-1-yl)piperidine-1-carboxylate] | 9.80 | 9.04 |
| CC(C)(C)OC(=O)[C@@H]1CC[C@](CC#N)(n2nc(Nc3ccc(S(C)(=O)=O)cc3)c3c(=O)[nH]ccc32)CO1 (single isomer, unassigned) [Example 5-37, (2R,5S or 2S,5R)-tert-butyl 5-(cyanomethyl)-5-(3-((4-(methylsulfonyl)phenyl)amino)-4-oxo-4,5-dihydro-1H-pyrazolo[4,3-c]pyridin-1-yl)tetrahydro-2H-pyran-2-carboxylate] | 8.71 | 7.77 |
| CC(C)(C)OC(=O)N1CCC(CC#N)(n2nc(Nc3cc(Cn4cccn4)cc(Cn4cccn4)c3)c3c(=O)[nH]ccc32)CC1 [Example 5-60, tert-butyl 4-(3-(3,5-bis((1H-pyrazol-1-yl)methyl)phenylamino)-4-oxo-4,5-dihydropyrazolo[4,3-c]pyridin-1-yl)-4-(cyanomethyl)piperidine-1-carboxylate] | 8.97 | 9.34 |
| COC(=O)N1CCC(CC#N)(n2nc(Nc3ccc4c(c3)CCC4(O)C(F)(F)F)c3c(=O)[nH]ccc32)CC1 (single isomer, unassigned) [Example 5-143, (R or S)-methyl 4-(cyanomethyl)-4-(3-((1-hydroxy-1-(trifluoromethyl)-2,3-dihydro-1H-inden-5-yl)amino)-4-oxo-4,5-dihydro-1H-pyrazolo[4,3-c]pyridin-1-yl)piperidin-1-carboxylate] | 9.74 | 9.18 |
| N#CC[C@@]1(n2nc(Nc3ccc(Cl)cc3)c3c(=O)[nH]ccc32)CCOC1 (single isomer, unassigned) [Example 5-241, [(3R or 3S)-3-{3-[(4-chlorophenyl)amino]-4-oxo-4,5-dihydro-1H-pyrazolo[4,3-c]pyridin-1-yl}tetrahydrofuran-3-yl]acetonitrile] | 8.58 | 7.63 |
| CC(C)(C)OC(=O)N1CCC(CC#N)(n2nc(Nc3ccc(S(=O)(=O)NCC4CC4)c(F)c3)c3c(=O)[nH]ccc32)CC1 [Example 5-296, tert-butyl 4-(cyanomethyl)-4-(3-((4-(N-(cyclopropylmethyl)sulfamoyl)-3-fluorophenyl)amino)-4-oxo-4,5-dihydro-1H-pyrazolo[4,3-c]pyridin-1-yl)piperidine-1-carboxylate] | 9.19 | 9.04 |

These reach a higher pIC50 [1]. Values come first.

| pIC50 [1] | pIC50 [2] | SMILES |
| --- | --- | --- |
| 10.05 | 10.10 | CC(C)(C)OC(=O)N1CC[C@](CC#N)(n2nc(Nc3ccc(S(C)(=O)=O)cc3)c3c(=O)[nH]ccc32)[C@H](F)C1 [Example 5-17, tert-butyl (3R,4R)-4-(cyanomethyl)-3-fluoro-4-(3-{[4-(methylsulfonyl)phenyl]amino}-4-oxo-4,5-dihydro-1H-pyrazolo [4,3-c]pyridin-1-yl) piperidine-1-carboxylate] |
| 9.82 | 9.92 | CC(C)(C)OC(=O)N1CC[C@](CC#N)(n2nc(Nc3ccc([C@H](O)C(F)(F)F)cc3)c3c(=O)[nH]ccc32)[C@H](F)C1 (single isomer, unassigned) [Example 5-20, tert-butyl (3R,4R)-4-(cyanomethyl)-3-fluoro-4-[4-oxo-3-({4-[(1S or 1R)-2,2,2-trifluoro-1-hydroxyethyl]phenyl}amino)-4,5-dihydro-1H-pyrazolo [4,3-c]pyridin-1-yl] piperidine-1-carboxylate] |
| 10.00 | 9.80 | CN(C)S(=O)(=O)c1ccc(Nc2nn(C3(CC#N)CCN(C(=O)CC#N)CC3)c3cc[nH]c(=O)c23)cc1 [Example 9-25, 4-((1-(1-(2-cyanoacetyl)-4-(cyanomethyl)piperidin-4-yl)-4-oxo-4,5-dihydro-1H-pyrazolo[4,3-c]pyridin-3-yl)amino)-N,N-dimethylbenzenesulfonamide] |
| 10.10 | 9.14 | Cc1nc2ccc(Nc3nn([C@]4(CC#N)CC[C@@H](C(=O)OC(C)(C)C)OC4)c4cc[nH]c(=O)c34)cc2s1 [Example 21-1, (2S,5S)-tert-butyl 5-(cyanomethyl)-5-(3-((2-methylbenzo[d]thiazol-6-yl)amino)-4-oxo-4,5-dihydro-1H-pyrazolo[4,3-c]pyridin-1-yl)tetrahydro-2H-pyran-2-carboxylate] |
| 10.30 | 9.85 | CC(C)(C)OC(=O)[C@@H]1CC[C@@](CC#N)(n2nc(Nc3ccc(S(=O)(=O)C4CC4)cc3)c3c(=O)[nH]ccc32)CO1 [Example 5-99, (2S,5S)-tert-butyl 5-(cyanomethyl)-5-(3-((4-(cyclopropylsulfonyl)phenyl)amino)-4-oxo-4,5-dihydro-1H-pyrazolo [4,3-c]pyridin-1-yl) tetrahydro-2H-pyran-2-carboxylate] |
| 10.30 | 9.92 | CN1Cc2cc(Nc3nn([C@]4(CC#N)CC[C@@H](C(=O)OC(C)(C)C)OC4)c4cc[nH]c(=O)c34)ccc2S1(=O)=O [Example 5-55, (2S,5S)-tert-butyl 5-(cyanomethyl)-5-(3-((2-methyl-1,1-dioxido-2,3-dihydrobenzo[d]isothiazol-5-yl)amino)-4-oxo-4,5-dihydro-1H-pyrazolo[4,3-c]pyridin-1-yl)tetrahydro-2H-pyran-2-carboxylate] |
| 9.96 | 8.53 | Cc1ccc2cc(Nc3nn([C@]4(CC#N)CCCOC4)c4cc[nH]c(=O)c34)ccc2n1 [Example 5-226, (S)-2-(3-(3-((2-methylquinolin-6-yl)amino)-4-oxo-4,5-dihydro-1H-pyrazolo [4,3-c]pyridin-1-yl)tetrahydro-2H-pyran-3-yl)acetonitrile] |
| 10.30 | 10.40 | N#CC[C@@]1(n2nc(Nc3ccc([C@]4(C(F)(F)F)CCCCN4)cc3)c3c(=O)[nH]ccc32)CCOC[C@@H]1F (single isomer, unassigned) [Example 5-265, 2-((3R,4R or 3S,4S)-3-fluoro-4-(4-oxo-3-((4-((S or R)-2-(trifluoromethyl)piperidin-2-yl)phenyl)amino)-4,5-dihydro-1H-pyrazolo[4,3-c]pyridin-1-yl)tetrahydro-2H-pyran-4-yl)acetonitrile] |
